Results on 1 compound are retold here after patent US20240148757A1, “USE OF DIHYDROOROTATE DEHYDROGENASE (DHODH) INHIBITORS TO TARGET FERROPTOSIS IN CANCER THERAPY” (BOARD OF REGENTS, THE UNIVERSITY OF TEXAS SYSTEM, priority 2021, published 2024).

The subject of data set [1] is GPX4^low NCI-H226 xenografts. Put plainly: NCI-H226 xenograft model. It counts as in vivo, athymic nude mice. The settings on record: brequinar 30 mg/kg intraperitoneally every three days. The protocol: All the xenograft experiments were performed in accordance with a protocol approved by the Institutional Animal Care and Use Committee and Institutional Review Board at The University of Texas MD Anderson Cancer Center. The study is compliant with all relevant ethical regulations regarding animal research. Female 4- to 6-week-old athymic nude mice (Foxn1^nu/Foxn1^nu) were purchased from the Experimental Radiation Oncology Breeding Core Facility at MD Anderson Cancer Center and housed in the Animal Care Facility at the Department of Veterinary Medicine and Surgery at MD Anderson. Cancer cell lines were suspended and counted in cold phosphate-buffered saline (PBS), and 5×10^6 HT-1080 or 1×10^7 NCI-H226 cells were injected into mice subcutaneously. When the tumor reached 50-100 mm^3, the mice were assigned randomly into different treatment groups. Brequinar or sulfasalazine was dissolved in dimethyl sulfoxide (DMSO) and diluted in PBS. Brequinar was intraperitoneally injected into mice at a dose of 30 mg/kg every three days. Sulfasalazine was intraperitoneally injected daily at a dose of 100 mg/kg. Liproxstatin-1 diluted in PBS was intraperitoneally injected daily at a dose of 10 mg/kg. […] The tumor volume was measured every 3 days until the endpoint and calculated according to the equation volume=length×width^2×½.

A further data set concerns HT-1080 xenograft tumors. Put plainly: HT-1080 cell line-derived xenograft model. It counts as in vivo, athymic nude mice. The protocol: (§1) Fresh tumor tissues were fixed in 10% neutral buffered formalin overnight, washed once with PBS, and stored in 70% ethanol at 4° C. The tissues were dehydrated and embedded in paraffin by the Research Histology Core Laboratory (MD Anderson Cancer Center) according to standard protocols. Embedded tissues were sectioned at a thickness of 5 μm for H&E or immunohistochemistry (IHC) analysis. IHC analysis was performed as previously described (Gan, B., et al., Cancer Cell 18, 472-484 (2010); Gan, B., et al., J Cell Biol 175, 121-133 (2006)). Briefly, the primary antibodies, including ki-67 (1:500, 9027s, Cell Signaling Technology), cleaved-caspase 3 (1:500, 9661s, Cell Signaling Technology), or 4-HNE (1:400, ab46545, Abcam) were incubated overnight at 4° C. Staining was performed using the Vectastain elite ABC kit and DAB peroxidase substrate kit (Vector laboratories). Images were randomly taken from the […] (five images per tumor) at ×200 magnification using an Olympus BX43 microscope. All the xenograft experiments were performed in accordance with a protocol approved by the Institutional Animal Care and Use Committee and Institutional Review Board at The University of Texas MD Anderson Cancer Center. The study is compliant with all relevant ethical regulations regarding animal research. Female 4- to 6-week-old athymic nude mice (Foxn1^nu/Foxn1^nu) were purchased from the Experimental Radiation Oncology Breeding Core Facility at MD Anderson Cancer Center and housed in the Animal Care Facility at the Department of Veterinary Medicine and Surgery at MD Anderson. Cancer cell lines were suspended and counted in cold phosphate-buffered saline (PBS), and 5×10^6 HT-1080 or 1×10^7 NCI-H226 cells were injected into mice subcutaneously. When the tumor reached 50-100 mm^3, the mice were assigned randomly into different treatment groups. Brequinar or sulfasalazine was dissolved in dimethyl sulfoxide (DMSO) and diluted in PBS. Brequinar was intraperitoneally injected into mice at a dose of 30 mg/kg every three days. Sulfasalazine was intraperitoneally injected daily at a dose of 100 mg/kg. Liproxstatin-1 diluted in PBS was intraperitoneally injected daily at a dose of 10 mg/kg. The daily injection of brequinar, sulfasalazine, or liproxstatin-1 was continued until the endpoint as indicated in the corresponding figures. The tumor volume was measured every 3 days until the endpoint and calculated according to the equation volume=length×width^2×½.

The next data set concerns GPX4-knockdown tumors. Put plainly: GPX4-knockdown HT-1080 xenograft model. In kind it is in vivo, athymic nude mice. The protocol: as §1
For a further data set, the system named is GPX4^high HT-1080 cells. Briefly: Cell viability / cell death (ferroptosis) in HT-1080 cells. The settings on record: wild-type (WT) cells, BQR 500 μM, 4 hours. It counts as cell-based, human. The method, then:
Briefly, cells were seeded onto 96-well plates at a density of 2×10^4 per well. The next day, cells were treated with GPX4 or DHODH inhibitors for 4 hours. Subsequently, cells exposed to 10 μl CCK-8 reagent (100 μl medium per well) for 1 hour at 37° C., 5% CO2 in an incubator. The absorbance at a wavelength of 450 nm was determined using a FLUOstar Omega microplate reader (BMG Labtech).
For propidium iodide-staining, cells were seeded at a density of 50% confluence into 12-well plates. The next day, cells were treated with different reagents. To measure cell death, the cells were collected (including floating dead cells), stained with 5 μg/ml propidium iodide and the percentage of the propidium iodide-positive dead cell population was analyzed using the flow cytometer BD Accuri C6 (BD Biosciences) and an FL2 detector. A minimum of 10,000 single cells were analyzed per well and all experiments were carried out at least in triplicate.

Another data set concerns the target DHODH (Homo sapiens, UniProt Q02127). To be noted: cited from earlier work.
The subject of the next data set is solid tumors. The settings on record: oncology clinical trials; cited from earlier work.
Data set [2] has as its system GPX4^low patient-derived xenografts (PDXs). Put plainly: GPX4^low patient-derived xenograft model. In kind it is in vivo, NSG mice. To be noted: brequinar 30 mg/kg intraperitoneally every three days. The text has this:
PDXs were generated in accordance with protocols approved by the Institutional Review Board at The University of Texas MD Anderson Cancer Center. Informed consent was obtained from the patients and the study is compliant with all relevant ethical regulations regarding research involving human participants. All the NOD scid gamma (NSG) mice were purchased from the Experimental Radiation Oncology Breeding Core Facility at MD Anderson Cancer Center and housed in the Animal Care Facility at the Department of Veterinary Medicine and Surgery at MD Anderson Cancer Center. PDX model used in this study was originally obtained from lung cancer PDX platform at MD Anderson Cancer Center. PDX experiments were performed as previously described (Liu, X., et al., Nat Cell Biol 22, 476-486 (2020)). Briefly, PDX tumors in cold DMEM media were minced into fragments 1-2 mm^3 in volume. Then each PDX tumor fragment was subcutaneously inoculated into the dorsal flank of NSG mice. When the tumors reached 50-100 mm 3 in volume, the mice were assigned randomly into different treatment groups for the treatment of brequinar, sulfasalazine, and/or liproxstatin-1 as described under cell line-derived xenograft model. The tumor volume was measured every 3 days until the endpoint and calculated according to the equation volume=length×width^2×½.

The mark [3] stands for this setting: brequinar 30 mg/kg intraperitoneally every three days.

Chain of DHODH (Q02127 whole entry, species assumed): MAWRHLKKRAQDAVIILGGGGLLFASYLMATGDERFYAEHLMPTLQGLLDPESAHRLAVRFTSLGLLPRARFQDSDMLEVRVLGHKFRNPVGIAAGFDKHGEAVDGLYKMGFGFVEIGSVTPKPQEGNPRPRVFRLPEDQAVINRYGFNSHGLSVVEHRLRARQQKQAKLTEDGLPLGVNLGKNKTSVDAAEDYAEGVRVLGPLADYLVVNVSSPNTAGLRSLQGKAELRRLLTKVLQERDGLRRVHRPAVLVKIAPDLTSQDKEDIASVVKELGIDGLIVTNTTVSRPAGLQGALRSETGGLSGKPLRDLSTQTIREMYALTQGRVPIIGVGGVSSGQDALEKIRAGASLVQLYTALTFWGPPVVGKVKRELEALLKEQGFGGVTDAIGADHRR

On to `Cc1c(-c2ccc(-c3ccccc3F)cc2)nc2ccc(F)cc2c1C(=O)O` [brequinar], for which the tumor growth entry is “significantly suppressed” in data set [1], “did not affect the growth” in the data set with HT-1080 xenograft tumors (setting [3]) and “significantly suppressed” in data set [2]. Also, the “4-HNE staining (lipid peroxidation marker)” value with HT-1080 xenograft tumors (control tumors) is on record as “but not in control tumors”; with GPX4-knockdown tumors (GPX4-knockdown tumors), “dramatically increased”. Besides, the “cleaved caspase-3 or Ki67 staining” value in the data set on HT-1080 xenograft tumors (control xenograft samples) and in the data set on GPX4-knockdown tumors (GPX4-knockdown xenograft samples) was “did not affect” in each case. The “tumor growth (sensitivity to DHODH inhibition)” value in the data set with GPX4-knockdown tumors (setting [3]) is reported as “significantly sensitized”. Besides, the “effect on RSL3-induced ferroptosis” value in the data set on GPX4^high HT-1080 cells was “promotes RSL3-induced ferroptosis”. Also, the “DHODH inhibitor potency and specificity” value at DHODH is “potent and specific”. Further, the “efficacy against solid tumors” value with solid tumors was “lacks broad efficacy against solid tumors”. Further, the tolerability in patients result in the data set with solid tumors is “well-tolerated”.
